Columns and labels:
integrase = integrase (Human immunodeficiency virus type 1 group M subtype B, UniProt P04585); assay: Integrase inhibitory activity (Experimental Example 1); assay type: biochemical, HIV; details: integrase strand transfer ELISA, absorbance OD 405 nm
Method: (1) Preparation of DNA Solution
By the same method as that described in Experimental Example 1 of Patent Document 2, a substrate DNA solution (2 pmol/μl) and a target DNA solution (5 pmol/μl) were prepared. […] Each sequence of a substrate DNA and a target DNA is as described in the same Experimental Example.
(2) Measurement of Inhibition Rate (IC50 Value)
Onto Immobilizer—Streptavidin Plates (manufactured by NUNC) was added 100 μl of a substrate DNA solution (2 pmol/μl). After adsorbing at room temperature for 60 minutes under shaking, it was washed with a phosphate buffer two times.
Then, to each well prepared as described above were added 51 μl of a reaction solution prepared from 12 μl of a buffer (composition: 150 mM MOPS (pH 7.2), 75 mM MnCl2, 50 mM 2-mercaptoethanol, 25% glycerol, 500 μg/ml bovine serum albumin-fraction V) and 39 μl of distilled water. Then, 9 μl of an integrase solution (30 pmol) was added, and the mixture was mixed well. To a well as a negative control (NC) was added 9 μl of a diluting solution (composition: 50 mM Hepes (pH 8.0), 10 mM DTT, 10% Glycerol, 0.5 M NaCl), and this was mixed well using a plate mixer.
After the plate was incubated at 30° C. for 60 minutes, the reaction solution was discarded, followed by washing with 200 μl of a washing buffer (composition: 150 mM MOPS (pH 7.2), 50 mM 2-mercaptoethanol, 25% glycerol, 500 μg/ml bovine serum albumin-fraction V) three times.
Then, to each well were added 53 μl of a reaction solution prepared from 12 μl of a buffer (composition: 150 mM MOPS (pH 7.2), 75 mM MgCl2, 50 mM 2-mercaptoethanol, 25% glycerol, 500 μg/ml bovine serum albumin-fraction V) and 41 μl of distilled water. Further, 6 μl of a solution of a test compound in DMSO was added to each well, and 6 μl of DMSO was added to wells as a positive control (PC) and a negative control (NC), followed by mixing well using a plate mixer. After the plate was incubated at 30° C. for 60 minutes, 1 μl of a target DNA (5 pmol/μl) was added, and this was mixed well using a plate mixer.
After each plate was incubated at 30° C. for 10 minutes, the reaction solution was discarded, followed by washing with a phosphate buffer two times. Then, an anti-digoxigenin antibody labeled with alkaline phosphatase (sheep Fab fragment: manufactured by Boehringer) was diluted 2000-fold with an antibody diluting solution, 100 μl of the diluent was added to bind at 30° C. for 1 hour, and this was washed successively with a phosphate buffer containing 0.05% Tween 20 two times, and a phosphate buffer two times. […] C abs.: Absorbance of well of compound NC abs.: Absorbance of NC PC abs.: Absorbance of PC

HIV virus = assay: Anti-HIV activity in MT-4 cells, MTT (Experimental Example 2); assay type: cell-based; details: Human immunodeficiency virus 1, MT4, 96 h, 50% HIV inhibition concentration, 4 days incubation
Method: Previously, a series of two-fold dilution on test samples were carried out in a 96-well plate (50 μL/well). Two plates were made for measuring anti-HIV activity and measuring cytotoxicity. For each agent, measurement in duplicate was carried out. An MT-4 cell suspension of 2.5×10^5/mL was dispensed at 100 μL/well onto the 96-well plate containing the test samples. An HIV virus solution was dispensed at 50 μL/well onto the 96-well plate containing the test samples and the cell. To the plate for measuring cytotoxicity, a culture solution was dispensed at 50 μL/well. It was mixed by a plate mixer, and then incubated in a CO2 incubator for 4 days. […] Thirty microliters of a MTT (3-(4,5-dimethylthiazol-2-yl)-2,5-diphenyltetrazolium bromide) solution was dispensed to each well.
A reaction was allowed to occur in a CO2 incubator for 1 hour. From each well, 150 μL of the supernatant was removed such that cells are not sucked. One-hundred and fifty microliters of a cell lysis solution was added thereto, and then it was mixed well by a plate mixer until the whole cells are lysed. The mixed 96-well plates were measured by a microplate reader at two wavelengths, 560 nm/690 nm. Based on the following calculation formula, 50% HIV inhibition concentration (EC50) was calculated. […]
Based on the following calculation formula, selectivity index was calculated. […]

Row | SMILES | IC50 (integrase) [nM] | EC50 (HIV virus) [nM]
1 | C[C@@H]1CCO[C@H]2Cn3cc(-c4ncc(Cc5ccc(F)cc5)s4)c(=O)c(O)c3C(=O)N12 [Example 1] | 3.9 | 
2 | C[C@@H]1CCO[C@H]2Cn3cc(-c4ncc(Cc5ccc(F)cc5F)s4)c(=O)c(O)c3C(=O)N12 [Example 2] | 2 | 2.8
3 | C[C@@H]1CCO[C@H]2Cn3cc(-c4nnc(Cc5ccc(F)cc5)s4)c(=O)c(O)c3C(=O)N12 [Example 3] | 3.8 | 
4 | C[C@@H]1CCO[C@H]2Cn3cc(-c4nnc(Cc5ccc(F)cc5F)s4)c(=O)c(O)c3C(=O)N12 [Example 4] | 1.3 | 1.7

— US9200009B2, “Polycyclic pyridone derivative having integrase inhibitory activity” (Shionogi & Co., Ltd., priority 2011, dated 2015)
